# Measured values from patent publication US12059565B1, “Methods and systems for modulating unconsciousness or anesthesia in a subject” (priority 2019, dated 2024).
# Experiments:
# [1] = infused for several hours to days at 1.5 mcg/kg/hr, critically ill patients; cited from earlier work
# [2] = test system: EEG SWA / behavioral responsiveness; details: during TCI dexmedetomidine sedation; expected, based on Sleigh and colleagues
# Description: Participants will undergo three arousals during this phase of the experiment: one during in-phase stimulation, one during anti-phase stimulation, and one during sham stimulation (FIG. 13). The order of CLASS conditions under which a participant will be aroused is the same as in Phase 2, which is balanced across participants. Each arousal will be preceded by at least three consecutive minutes of acoustic stimulation, which will continue during the arousal procedure. The arousal procedure consists of the same ramping thermal stimulation used during pre-sedation QST. The cardinal difference between pre-sedation QST and arousal QST is that one of the investigators will be tasked with pressing the button to end the thermal ramp instead of the sedated participant. The investigator will end the arousal protocol as soon as they observe purposeful behavior in response to the thermal stimulation. The investigator will also be able to terminate the thermal stimulation at their clinical discretion. Vital signs, EEG, and video recording will allow review of the time of arousal during post-hoc analysis. […] Assessors of arousal will be blinded to the acoustic stimulation conditions. Once a participant has been definitively aroused, thermal stimulation will cease. […]
# [3] = healthy volunteers; conservative estimate; cited from earlier work
# alpha2 receptors = details: cited from earlier work
# [4] = target effect site concentrations of 2.0-4.0 ng/ml, most participants
structure (smiles),measurement,setting,value
Cc1cccc([C@H](C)c2cnc[nH]2)c1C [dexmedetomidine],steady-state concentration,[1],2.5 to 3.0 ng/mL
same,time for EEG SWA to return to pre-arousal levels,[2],≤ 10 min
same,time to return to a state of unresponsiveness after thermal arousal,[2],≤ 60 s
same,equilibration constant (t1/2 ke0),[3],3 min
same,most common adverse events,alpha2 receptors; dexmedetomidine infusions,"bradycardia, hypotension and hypertension"
same,haemodynamic effect at low plasma concentrations,"alpha2 receptors; plasma concentration <1 ng/ml, agonism at alpha2 receptors in the central nervous system",decrease in peripheral vascular resistance and heart rate
same,haemodynamic effect at higher plasma concentrations,"alpha2 receptors; plasma concentration >4 ng/ml, agonism at alpha2 receptors on vascular smooth muscle",hypertension and worsening reflex bradycardia
same,HR,alpha2 receptors; [4],> 75 % from baseline
same,MAP,alpha2 receptors; [4],near-baseline
same,level of sedation,alpha2 receptors; [4],moderately sedated
